Drawing on paper PMC6452685, “Lysyl-tRNA synthetase as a drug target in malaria and cryptosporidiosis” (Proceedings of the National Academy of Sciences of the …, 2019), this text covers EC50 and IC50 for 1 molecule.

The subject of experiment [1] is Pf(TM90C2B). Put plainly: Drug resistant P. falciparum TM90C2B, [3H]-hypoxanthine incorporation. The class given is cell-based. To be noted: Plasmodium falciparum, atovaquone-resistant. An excerpt:
3.2 Cytotoxicity Studies (Dundee)
In vi t ro cy totox i ci ty s tudies can be ca rri ed out us i ng Hep G 2 (Human C aucas i an hepatocy te ca rci noma, ECACC cat. no. 850 114 30) us ed as i ndi cators f or g eneral mammal i an cel l tox i ci ty . […]
3.3 In vitro Cell Assay D ata Analysis (Du ndee) […]
as 0%. Qual i ty control c ri teri a for passi ng pl ates were as fol l ow s : Z’ > 0.
< 15 . T he f ormula used to calculate Z’ is 1- 3´ (St D e v _ hi gh + St D e v_ low) . […]
Al l EC50 Curve fitti ng was undertaken usi ng XLFi t versi on 4.2 usi ng Model 205 wi th the foll owi ng 4 paramet ri c equat i on: A + (?-A) ,where A=% i nhi bi ti on at bo ttom, B=% i nhi bi ti on at top, C= EC , […]
D= slope, x= inhibitor concentration a nd y= % inhibition. […]
was fixed to 100 only when at least 50% of inhibition was reached. […]
Hoffmann-La Ro che Ltd) a nd resi stant strai ns K1 and TM90C2B (fr om the Malaria Research an d Reference Reag ent Res ou rce C enter, accu rate d es cri pti ons of the g eneti c backg roun ds of thes e strains can be obtained at http://www.beiresources.org) were cultivated in a variation of the medium prev i ous l y des cri bed (5, 6), c onsi sti ng of RPMI 16 40 su ppl emented wi th 0.5% ALBUMAX® II, 25 m M Hepes , 25 mM NaHC O3 (pH 7. […] The re s ul t s were recorded and expressed as a percentage of the untreated controls. […]

Experiment [2] deals with human ether-à-go-go related gene (hERG) K+ channel (Homo sapiens, UniProt Q12809). Put plainly: hERG K+ channel assay (IonWorks patch clamp). Type of experiment: cell-based.
Experiment [3] has as its target T1, CYP2D6 (Homo sapiens, UniProt P10635).
T1 construct: purchased Cypex, Dundee, UK; host or cells: bacterial membranes (bactosomes)
Put plainly: Fluorescence-based CYP inhibition, CYP2D6. Type of experiment: in vitro ADME. The procedure: 4.7 F lu or e s ce nce-based CYP I nhibition usin g recombinantly expressed CYP b actosomes Fl uorogeni c C YP i nhi bi t i on s t udi es w ere c ondu ct ed at 37 °C i n 96-well, flat-bot t om, cl ear p ol y s t y rene pl at es. I ncubat i on mi xt ures cont ai ni ng Eas y C YP bact os omes (1000 pmol /ml , 10 mg /ml C y pex TM, Dundee, UK), fl uorogeni c substrate (Cypex TM) and 50 mM potas s i um phosphat e buffer (p H 7. 4) w er e prepared at t he fol l ow i ng fi nal concent rat i ons : C YP1A2, 5 pmol /ml + 35 µ M et hox y res orufi n (ER) ; CYP2C9, 10 pm ol/ml + 30 µM 7-methoxy-4-(tri fl uo romethy l )-coumari n (MFC ); C YP 2C 19, 5 pm ol /ml + 25 µM 3-cy ano-7-eth oxycoumarin (CEC); C YP 2D 6, 10 pmol /ml + 6 µM 7-meth oxy-4-(ami nomethy l )- coumari n (MAMC ); C YP 3A4, 10 pmol /ml + 1 µM diethoxyfluorescein (DEF) and 10 pmol /ml + 15 µM 7-benz y l ox y qui nol i ne (BQ ). […] 0125 ( 1A2 and 2C 9 onl y ) o r 0. 025 mg /ml (al l ot her i s oforms ). […] Positive control inhibitor, miconazole, was prepared as a 500 µM s olution in DMSO and similarly diluted.
For eac h i sofo rm, 2 20 µl of i ncubati on mi x was added to each wel l of a 96-well, flat-bot t om, cl ear pol y s t y rene pl at e. Al i quot s (5 µl) of each compound 5 conce ntrati on was then mi x ed wi th 220 µl of the incubation mix and pre-incubated at 37 °C for 5 min (final test compound concentration range: […]

Molecules are shown by their SMILES. A value given as a limit tells only on which side of the number the result lay.

T1 sequence (P10635 whole entry): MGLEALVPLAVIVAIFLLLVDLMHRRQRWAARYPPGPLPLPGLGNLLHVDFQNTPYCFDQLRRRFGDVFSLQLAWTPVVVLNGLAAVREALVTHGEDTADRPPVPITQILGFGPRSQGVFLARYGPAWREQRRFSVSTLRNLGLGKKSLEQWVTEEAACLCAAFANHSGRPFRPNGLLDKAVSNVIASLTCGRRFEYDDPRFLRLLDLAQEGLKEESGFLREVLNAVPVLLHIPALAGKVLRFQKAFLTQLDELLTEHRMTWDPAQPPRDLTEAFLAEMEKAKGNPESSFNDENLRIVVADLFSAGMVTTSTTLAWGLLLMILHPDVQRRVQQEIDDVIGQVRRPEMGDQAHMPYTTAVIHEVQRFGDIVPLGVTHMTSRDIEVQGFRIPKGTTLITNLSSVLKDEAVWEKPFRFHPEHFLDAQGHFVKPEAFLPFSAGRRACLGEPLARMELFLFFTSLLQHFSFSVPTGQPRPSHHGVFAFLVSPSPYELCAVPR
Chain of human ether-à-go-go related gene (hERG) K+ channel (Q12809 whole entry): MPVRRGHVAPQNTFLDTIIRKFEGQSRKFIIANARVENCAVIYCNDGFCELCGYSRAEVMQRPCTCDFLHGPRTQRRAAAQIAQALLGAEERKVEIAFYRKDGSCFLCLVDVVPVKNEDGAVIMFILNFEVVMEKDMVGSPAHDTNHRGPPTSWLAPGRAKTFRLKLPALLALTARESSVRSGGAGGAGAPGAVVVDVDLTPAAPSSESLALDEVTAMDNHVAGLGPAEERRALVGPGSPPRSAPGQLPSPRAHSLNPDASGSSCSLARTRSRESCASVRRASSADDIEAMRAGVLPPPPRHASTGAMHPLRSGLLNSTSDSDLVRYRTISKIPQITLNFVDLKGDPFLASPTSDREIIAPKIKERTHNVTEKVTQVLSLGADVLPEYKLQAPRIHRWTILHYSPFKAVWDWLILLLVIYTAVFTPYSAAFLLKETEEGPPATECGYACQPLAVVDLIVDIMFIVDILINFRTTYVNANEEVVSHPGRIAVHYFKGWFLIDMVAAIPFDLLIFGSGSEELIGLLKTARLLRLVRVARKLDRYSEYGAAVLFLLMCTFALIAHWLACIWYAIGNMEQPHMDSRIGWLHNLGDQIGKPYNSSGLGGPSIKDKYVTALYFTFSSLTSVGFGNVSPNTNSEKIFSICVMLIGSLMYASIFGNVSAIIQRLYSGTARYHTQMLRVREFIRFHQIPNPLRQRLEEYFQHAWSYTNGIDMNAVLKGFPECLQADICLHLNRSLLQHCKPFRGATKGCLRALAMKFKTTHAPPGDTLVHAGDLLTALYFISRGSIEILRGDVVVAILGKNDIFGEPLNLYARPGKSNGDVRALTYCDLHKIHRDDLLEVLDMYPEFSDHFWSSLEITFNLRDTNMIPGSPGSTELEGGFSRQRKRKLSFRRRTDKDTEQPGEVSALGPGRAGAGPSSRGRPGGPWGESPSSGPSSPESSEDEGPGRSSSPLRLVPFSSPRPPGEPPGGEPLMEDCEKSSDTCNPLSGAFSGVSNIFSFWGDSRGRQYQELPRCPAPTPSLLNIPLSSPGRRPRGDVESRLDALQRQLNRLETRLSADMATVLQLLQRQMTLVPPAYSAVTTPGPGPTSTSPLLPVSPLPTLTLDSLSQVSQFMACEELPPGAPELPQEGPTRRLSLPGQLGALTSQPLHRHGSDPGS

In the case of `O=C(NCC1(O)CCC(F)(F)CC1)c1cc(=O)c2cc(F)ccc2o1` [Compound 5], the concentration for a half-maximal effect (EC50) is 0.52 µM in experiment [1] and above 100 µM in experiment [2]. For the same molecule, the 50% inhibitory concentration (IC50) in experiment [3] was above 10 µM.
